Results on one sequence are retold here after PMC6291738, “Identification of novel HIV-1-derived HLA-E-binding peptides” (Immunology Letters, 2018).

“And” between values parts separate entries of the source, which are not always exact repeats. Equal values may be shown once. No end group written: not given here.

Experiment [1] has as its target T1, HLA-E*01:03 (Homo sapiens, UniProt P13747). Description: HLA-E/peptide cell-surface stabilization (binding) assay, RMA-S cells transfected with HLA-E*01:03. The format is cell-based. More on the design: RMA-S cells expressing HLA-E*01:01 and E*01:03 were generated by transfecting the genes into the RMA-S cell line; expressed in transfected cells; host or cells: murine TAP-deficient RMA-S cells. Conditions: PM9 positive control of the experimental day; RMA-S cells with HLA-E*01:03. How it is done:
Binding of PM9 to both HLA-E*01:01 and –E*01:03 alleles was assessed using an HLA-E/peptide cell-surface stabilization assays. Thus, murine RMA-S cells deficient in transporter associated with antigen processing (TAP) were stably transfected with one of the two HLA-E alleles together with human β2-microglobuline. Then, stabilization of HLA-E/PM9 and HLA-E/VL9 complexes was compared in peptide-titration analyses using peptide concentrations ranging from 0.01 μg/ml to 100 μg/ml by growing transfected RMA-S cells overnight at 26 °C, pulsing them with peptide for 1 h and transferring them to 37 °C for 3 additional hours. Weak half-maximal effective concentrations (EC50) of over 100 μM were indicated for the interaction of PM9 with the two HLA-E*01:01 and E*01:03 molecules (Fig. 1A).

Experiment [2] has as its target T1, HLA-E*01:03. Description: Single-chain peptide-β2-microglobulin-MHC-E trimer stabilization assay, HEK 293T cells, HLA-E*01:03. The format is cell-based. The arrangement: expressed in transfected cells. The conditions noted are these: transiently transfected HEK 293T cells. From the text: (§1) The chimeric genes coding for the single-chain peptide-β2-microblobuline-MHC-E trimers were constructed as described previously. Briefly, the DNA fragment coding the tested peptide was inserted downstream of the fragment coding for the signal sequence of HLA-E*01:01 followed by coding sequences for a flexible linker [G4S]4, β2-microglobulin and the desired heavy chain of MHC-E. […] to accommodate for the flexible linker. The assembled plasmids were then transfected into HEK 293 T cells maintained between 10% and 90% confluency at 37 °C, 5% CO2 in DMEM (Life Technologies) supplemented with 10% FBS (SeraLabs), and 50 units/ml Penicillin/50 μg/ml Streptomycin (Life Technologies). Transfections were carried out in 6-well plates using GeneJuice (Millipore) as per the manufacturer’s instructions.
To further confirm PM9-interaction with the MHC-E molecules, we employed an assay based on cell-surface stabilization of single-chain peptide-β2-microblobuline-MHC-E trimers. Briefly, a DNA fragment coding for the tested peptide, here PM9, was inserted downstream of an HLA-E leader peptide and was followed by flexible [G4S]4 linker, β2-microblobuline and Y84 A point-mutated MHC-E heavy chain, which accommodated the flexible linker (Fig. 1B left). […] From these experiments, we concluded that the PM9 peptide bound to HLA-E molecules, and stabilized and increased the HLA-E expression on the cell surface.
Fig. 2 Identification of HLA-E-binding peptides in a single-chain trimer stabilization assay. A single chain peptide-β2-microglobuline-MHC-E heavy chain trimer stabilization assay was employed to determine the candidate 9-mer peptide binding to HLA-E*01:03 (brown line) and compared to that induced by VL9 (yellow area) and irrelevant (pink area) peptide. Expression of trimer on transiently transfected into HEK 293T cells was assessed using a […] 3D12 mAb in flow cytometry. Please see gating strategy in Fig. S3.

The subject of experiment [3] is CD8+ T cells of HIV-1-infected patients. The experiment can be described thus: Search for PM9-specific HLA-E-restricted CD8+ T-cell responses in natural HIV-1 infection. Conditions: PBMC of 32 treatment-naïve patients chronically infected with HIV-1; barely detectable response. The format is cell-based, human. From the text:
Cryopreserved PBMCs from 32 treatment-naïve Japanese individuals chronically infected with HIV-1 subtype B were recruited from the National Center for Global Health and Medicine. All volunteers gave written informed consent before participation. The study was approved by the ethics committees of Kumamoto University and the National Center for Global Health and Medicine. Informed consent was obtained from all individuals according to the Declaration of Helsinki. Plasma and PBMCs were separated from whole blood. HLA types of the individuals were determined by standard sequence-based genotyping.
So far, we were unable to confirm existence of vaccine- or natural HIV-1 infection-elicited CD8^+ T lymphocytes recognizing HIV-1-derived peptides through their TCR and this is not for lack of trying. […] Since humans infected with M. tuberculosis have readily detectable CD8^+ T cells specific for HLA-E-presented M. tuberculosis peptides, perhaps search for such HLA-E-restricted HIV-1-specific CD8 T cells in dually HIV-1- and M. tuberculosis co-infected individuals might yield some interesting results.

In experiment [4] the target is HLA-E*01:01 (Homo sapiens, UniProt P13747, G128R). Description: Single-chain peptide-β2-microglobulin-MHC-E trimer stabilization assay, HEK 293T cells, HLA-E*01:01. The format is cell-based. The arrangement: expressed in transfected cells. The conditions noted are these: transiently transfected HEK 293T cells; mAb 3D12.
From the text: as §1
(§2) To further confirm PM9-interaction with the MHC-E molecules, we employed an assay based on cell-surface stabilization of single-chain peptide-β2-microblobuline-MHC-E trimers. Briefly, a DNA fragment coding for the tested peptide, here PM9, was inserted downstream of an HLA-E leader peptide and was followed by flexible [G4S]4 linker, β2-microblobuline and Y84 A point-mutated MHC-E heavy chain, which accommodated the flexible linker (Fig. 1B left). […]

For experiment [5], the system named is CD8+ HC092 STCL cells. The format is cell-based, human. The conditions noted are these: PM9-pulsed LCL721.221 HLA-B*18:01 transfectant; volunteer 410. How it is done:
Cryopreserved PBMCs were thawed and cultures set up at 1–3 × 10^6 cells/ml in culture medium containing 1.5 μg/ml 15-mer ‘parental’ peptide and 25 ng/ml IL-7 (R & D Systems). Cultures were supplemented with 100 IU/ml IL-2 (R&D Systems) on day 3, and IL-2 plus fresh culture medium on day 7. On day 10, the cells were washed three times with culture medium, re-suspended in 1 ml of medium and placed at 37 °C, 5% CO2 for 48 h to rest prior to the ICS assay.
LCL 721.221 cell lines expressing a single HLA allele were prepulsed with corresponding peptides, added to the STCLs in a 96-well plate at 37 °C for 2 h. […]
The first-generation candidate T-cell vaccine against HIV-1 employing conserved regions of the HIV-1 proteome was tested in HIV-1-negative adults in trial HIV−CORE 002 and induced robust HIV-1-specific T-cell responses. These responses were detected by pools of 15-mer peptides overlapping by 11 amino acids across the full length of the HIV-1-derived vaccine immunogen. […] In particular, HLA restriction was determined by expanding volunteer’s PBMC with stimulatory ‘parental’ peptide […] […]

Experiment [6] deals with Mamu-E*02:04. Description: Single-chain peptide-β2-microglobulin-MHC-E trimer stabilization assay, HEK 293T cells, Mamu-E*02:04. The class given is cell-based, rhesus macaque (Macaca mulatta). Conditions: transiently transfected HEK 293T cells; mAb 4D12.
From the text: as §1, §2

Experiment [7] concerns the target T1, HLA-E*01:03. The conditions noted are these: summary of both assays.

Turning to PEIVIYQYM [PM9], in experiment [1], the “Cell-Surface Stabilization Index E*01:03/PM9” value is 0.658 and 0.733 and 0.617 and 0.620. Moreover, the “HLA-E*01:03 single-chain trimer MFI relative to VL9 MFI” value in experiment [2] (highest increase of the three MHC-E molecules) is on record as “approximately half of the VL9 MFI”. In addition, the “HLA-E*01:03 single-chain trimer surface stabilization” value in experiment [2] (mAb 3D12, compared with VL9 and irrelevant peptide) is given as “increased the mean fluorescent intensity (MFI) relative to a non-binding peptide”. Besides, in experiment [3], the “PM9-specific HLA-E-restricted CD8+ T-cell responders” value is “one possible responder out of 32 patients”. For the same sequence, the “HLA-E*01:01 single-chain trimer surface expression (MFI) relative to non-binding peptide” value in experiment [4] is “increased the mean fluorescent intensity (MFI) relative to a non-binding peptide”. The “IFN-γ production by CD8+ HC092 STCL cells” value in experiment [5] came to 28.3%. In experiment [6], the “Mamu-E*02:04 single-chain trimer surface expression (MFI) relative to non-binding peptide” value is given as “increased the mean fluorescent intensity (MFI) relative to a non-binding peptide”. For the same sequence, in experiment [7], the “HLA-E binder classification across the SCT assay and the LCL721.221-HLA-E*01:03 assay (MFI over 4000)” value was “both the SCT assay and over 4000 MFI in the LCL721.221-HLA-E*01:03 assay”.
